Source: publication PMC6128652, “Structure of the Cladosporium fulvum Avr4 effector in complex with (GlcNAc)6 reveals the ligand-binding mechanism and uncouples its intrinsic function from recognition by the Cf-4 resistance protein” (PLoS Pathogens, 2018)
Numbering of substitutions follows the chain as printed. Entries after “also recorded” stand apart in the source; their conditions may differ.

B1: WT-CfAvr4: wild-type Avr4 effector protein of Cladosporium fulvum, CBM14 chitin-binding lectin, E. coli-produced mature form Lys30-Gln115 (protein)
chain: KAPKTQPYNPCKPQEVIDTKCMGPKDCLYPNPDSCTTYIQCVPLDEVGNAKPVVKPCPKGLQWNDNVGKKWCDYPNLSTCPVKTPQ
modifications: left off: 6x His (two), N-terminal, cleaved

Tests used:
[1] = molecular target: T1, Q69N (Fulvia fulva, UniProt Q00363, Q69N); assay: Isothermal titration calorimetry, (GlcNAc)6 titrated into protein in 10 mM Bis-Tris, pH 6.5, 100 mM NaCl, individual binding site model; temperature not given.; details: n = 3
T1 construct: gene AVR4; true mature form Lys30-Gln115, E. coli Rosetta-gami B
T1 sequence (Q00363 30-115 Q69N): B1 chain with Q40N
Method: (§1) All ITC experiments were performed on a TA Instruments low volume NanoITC with a 186uL reaction cell and a reference cell filled with degassed Milli-Q grade water. Reactions were run in a buffer containing 10mM Bis-Tris, pH 6.5, 100 mM NaCl. The reservoir solution was filled with protein solution and continuously stirred while Chitin hexasaccharide solutions titrated in 2.5μL aliquots for 19 injections, with an initial 1μL injection, for a total injection volume of 48.5μL. The carbohydrate solutions were made by dissolving the dry powder in buffer to a concentration of 20mM (confirmed using methods described above) and then diluted to the working concentration using the final buffer exchange flow through to match the buffers as closely as possible. The integrated heats, after correction for the heat of dilution were analyzed using the NanoAnalyze software from […]. An individual binding site model was used to fit the binding isotherm. All experiments were replicated a minimum of three times.
(§2) The parameters remained similar irrespectively of whether or not the purification tag was removed from the protein or whether a reverse titration was run, in which concentrated CfAvr4 was titrated into a dilute solution of (GlcNAc)6, with no evidence of allosteric or dimer dissociation (S2 Table and S6 Fig). The values are also in good agreement with previously reported data except for the stoichiometric ratio [9]. […] Due to this discrepancy, we took great care to verify the concentration of CfAvr4 using a Bradford assay, and quantitated the carbohydrate concentration.
(§3) A stock solution of the monomer of N-acetylglucosamine was prepared by dissolving the dry powder in a buffer containing 10 mM Bis-Tris, pH 6.5, 100 mM NaCl to a concentration of 0.100 g/L using analytic techniques. Standard solution of 0, 0.010, 0.025, 0.050, 0.075 g/L were prepared by serial dilutions. Using glass test tubes and pipets, 100 μL of each standard was mixed with 300μL of concentrated sulfuric acid and vortexed for 10 sec to mix. Solutions were incubated at RT for 10 min and then placed on ice to stop the reaction. […] Analytically prepared solution of the di- and tri-saccharide scaled linearly to the calibration curve. To determine the concentration of the chitin hexasaccharide solutions used in ITC, the solutions were diluted into the dynamic range of the calibration curve (S12 Fig) and subjected to the above procedure.

[2] = molecular target: T2, N93A (Fulvia fulva, UniProt Q00363, N93A); assay: as above; details: n = 3
T2 construct: gene AVR4; true mature form Lys30-Gln115, E. coli Rosetta-gami B
T2 sequence (Q00363 30-115 N93A): B1 chain with N64A
Method: as §1, §2, §3

[3] = molecular target: T3, WT-CfAvr4 w/o tag (Fulvia fulva, UniProt Q00363); assay: as above; details: n = 3
T3 construct: gene AVR4; true mature form Lys30-Gln115, purification tag removed with rhinovirus 3C protease, E. coli Rosetta-gami B
Method: as §1, §2, §3

[4] = molecular target: T4, WT-CfAvr4 (Fulvia fulva, UniProt Q00363); assay: as above; details: n = 3
T4 construct: gene AVR4; true mature form Lys30-Gln115, N-terminal two 6x His tags and rhinovirus 3C site (tag retained, by contrast with the w/o tag row), E. coli Rosetta-gami B
Method: as §1, §2, §3

[5] = molecular target: T5, P53A (Fulvia fulva, UniProt Q00363, P53A); assay: as above; details: n = 3
T5 construct: gene AVR4; true mature form Lys30-Gln115, E. coli Rosetta-gami B
T5 sequence (Q00363 30-115 P53A): B1 chain with P24A
Method: as §1, §2, §3

[6] = molecular target: T6, P87A (Fulvia fulva, UniProt Q00363, P87A); assay: as above; details: n = 3
T6 construct: gene AVR4; true mature form Lys30-Gln115, E. coli Rosetta-gami B
T6 sequence (Q00363 30-115 P87A): B1 chain with P58A
Method: as §1, §2, §3

[7] = molecular target: T7, K84A (Fulvia fulva, UniProt Q00363, K84A); assay: as above; details: n = 3
T7 construct: gene AVR4; true mature form Lys30-Gln115, E. coli Rosetta-gami B
T7 sequence (Q00363 30-115 K84A): B1 chain with K55A
Method: as §1, §2, §3

[8] = molecular target: T8, M51A (Fulvia fulva, UniProt Q00363, M51A); assay: as above; details: n = 3
T8 construct: gene AVR4; true mature form Lys30-Gln115, E. coli Rosetta-gami B
T8 sequence (Q00363 30-115 M51A): B1 chain with M22A
Method: as §1, §2, §3

[9] = molecular target: T9, Y103F (Fulvia fulva, UniProt Q00363, Y103F); assay: as above; details: n = 3
T9 construct: gene AVR4; true mature form Lys30-Gln115, E. coli Rosetta-gami B
T9 sequence (Q00363 30-115 Y103F): B1 chain with Y74F
Method: as §1, §2, §3

[10] = molecular target: T10, D94A (Fulvia fulva, UniProt Q00363, D94A); assay: as above; details: n = 3
T10 construct: gene AVR4; true mature form Lys30-Gln115, E. coli Rosetta-gami B
T10 sequence (Q00363 30-115 D94A): B1 chain with D65A
Method: as §1, §2, §3

[11] = molecular target: T11, N95A (Fulvia fulva, UniProt Q00363, N95A); assay: as above; details: n = 3
T11 construct: gene AVR4; true mature form Lys30-Gln115, E. coli Rosetta-gami B
T11 sequence (Q00363 30-115 N95A): B1 chain with N66A
Method: as §1, §2, §3

[12] = molecular target: T12, Y67F (Fulvia fulva, UniProt Q00363, Y67F); assay: as above; details: n = 3
T12 construct: gene AVR4; true mature form Lys30-Gln115, E. coli Rosetta-gami B
T12 sequence (Q00363 30-115 Y67F): B1 chain with Y38F
Method: as §1, §2, §3

[13] = molecular target: T4, WT-CfAvr4; assay: Isothermal titration calorimetry, reverse titration with concentrated CfAvr4 titrated into dilute (GlcNAc)6, 10 mM Bis-Tris, pH 6.5, 100 mM NaCl; temperature not given.; type: binding; details: n = 3
Text: as §2
All ITC experiments were performed on a TA Instruments low volume NanoITC with a 186uL reaction cell and a reference cell filled with degassed Milli-Q grade water. Reactions were run in a buffer containing 10mM Bis-Tris, pH 6.5, 100 mM NaCl. The reservoir solution was filled with protein solution and continuously stirred while Chitin hexasaccharide solutions titrated in 2.5μL aliquots for 19 injections, with an initial 1μL injection, for a total injection volume of 48.5μL. […] The integrated heats, after correction for the heat of dilution were analyzed using the NanoAnalyze software from ITC Technologies. […]

[14] = test system: Cf-4; assay: Agrobacterium tumefaciens transient transformation assay (ATTA): co-expression with Cf-4 in Nicotiana benthamiana leaves; type: in vivo; details: N. benthamiana, three cell density ratios 0.5:1, 1:1, 2:1
Method: The Agrobacterium tumefaciens transient transformation assay (ATTA) was used for the transient co-expression into leaves of Nicotiana benthamiana of Cf-4 with the WT-CfAvr4 and the mutants thereof tested in this study. Briefly, N. benthamiana plants were grown in a growth chamber with 16 h of artificial light and 70% humidity, at 25°C for 4 weeks. The true mature form of the WT-CfAvr4 (i.e. between Lys30-Gln115) and of the mutants thereof were singly cloned into the binary expression vector pICH47742 downstream of the PR1A signal sequence of Nicotiana tabacum for targeted secretion into the apoplast, and under the control of CaMV 35S promoter and NOS terminator. The tomato Cf-4 was cloned into pMOG800 as descripted before. Binary vector plasmids were transformed into A. tumefaciens strain GV3101 by electroporation. For the ATTA assay, agrobacteria transformed with pMOG800:Cf-4 was grown in 10mL LB-mannitol medium (LB medium with 10 g/L mannitol) amended with 50 μg/mL kanamycin and 25 μg/mL rifampicin, whereas agrobacteria transformed with pICH47742:WT-CfAvr4 or pICH4774:CfAvr4-mutants were grown in LB-mannitol amended with 100 μg/mL carbenicillin and 25 μg/mL rifampicin. All cultures were incubated at 28°C for 2 days, after which period they were pelleted at 2800g for 15 min, re-suspended in MMAi medium (5 g/L Murashige and Skoog basal salts, 20 g/L sucrose, 10 mM MES, and […]) at an optical cell density (A600) of 2.0, and further incubated for 2–4 h at room temperature. Agroinfiltrations were performed by mixing agrobacteria containing pMOG800:Cf-4 with agrobacteria containing pICH47742_WT-CfAvr4 or pICH47742:CfAvr4-mutants at three different ratios of optical cell densities, i.e. A6000.5:A6001.0, A6000.5:A6000.5, and A6000.5:A6000.25 of. The mixture of agrobacteria was infiltrated into the leaves of N. benthamiana plants using a 1 mL syringe and the induction of an HR in the infiltrated leaf sectors was evaluated at 5 days post-infiltrations. Control infiltrations were made using only the pMOG800:Cf-4 transformed agrobacteria and the agrobacteria containing pICH47742:CfAvr4 or the mutants thereof without mixing the two cultures, at cell densities of A6000.25, A6000.5, and A6001.0.

[15] = test system: germlings of Trichoderma viride; assay: In vitro protection assay of T. viride germlings against chitinases; type: cell-based; details: 5 μM protein with chitinases and β-1,3-glucanases
Method: The ability of the WT-CfAvr4 and of ChBD mutants to protect against chitinases was evaluated in in vitro protection assays conducted as described before. Briefly, spores of T. viride (3∙10^3) were pre-germinated overnight at room temperature in 100 μl of half-strength PDB medium in 96 well plates. The following day, 5 μM of WT-CfAvr4 or ChBD mutants were mixed with 7.5 units of Zymolyase (Zymo Research cat. no. E1004) and 0.2 units of bacterial chitinases (Sigma-Aldrich cat. no. C6137) and the mixture was added to the microtitre plate wells containing the pre-germinated spores in a final volume of 150 μl. Plates were incubated at 25°C for 6–8 h before evaluating under the microscope fungal growth and the ability of the proteins to provide protection against chitinases. Zymolase has β-1,3 glucanase and β-1,3-glucan laminaripentaohydrolase activity and is added to the mixture in order to remove the surface glucans from the fungal cell wall and thus expose the underlying chitin layer.

[16] = test system: tomato leaves of cv Moneymaker (–Cf-4); assay: Pure protein infiltrations into tomato leaves of cv Moneymaker (–Cf-4), hypersensitive response; type: in vivo
Method: Tomato seeds were obtained from the Tomato Genetic Resource Center (TGRC) at UC Davis. WT-CfAvr4 and mutants thereof with single point mutations at selected amino acids were produced and purified from E. coli Rosetta-gami B cells as description above. Proteins were infiltrated at a concentration of 5 μg/mL and 10 μg/mL into the back side of MM or Purdue 135 tomato leaves using a one mL syringe and the HR response was recorded at 6 days post-infiltrations.

[17] = test system: Cf-4 immune receptor; assay: Pure protein infiltrations into tomato leaves of cv Purdue 135 (+ Cf-4), hypersensitive response; type: in vivo; details: both 5 μg/ml and 10 μg/ml, 5 dpi
Text: Tomato seeds were obtained from the Tomato Genetic Resource Center (TGRC) at UC Davis. WT-CfAvr4 and mutants thereof with single point mutations at selected amino acids were produced and purified from E. coli Rosetta-gami B cells as description above. […]

[18] = Isothermal titration calorimetry (ITC) of CfAvr4 variants with chitin hexasaccharide; type: binding; details: compared with PfAvr4
Method: as §3, §1

[19] = test system: subtilisin; assay: Subtilisin treatment (resistance against proteolytic degradation); type: in vitro ADME; set-up: key to Stability (Subtilisin assay): S: stable; PU: partially unstable; details: 500 ng/μL subtilisin, 30 min, room temperature
Method: The WT-CfAvr4 and selected mutants thereof were exposed to the non-specific protease subtilisin in order to determine their resistance against proteolytic degradation. Treatments with subtilisin were made as previously described with minor modifications. Briefly, 40 μM of the E. coli-produced CfAvr4 and the selected CfAvr4 mutants were mixed with 10 mM of calcium chloride and 500 ng/μL of subtilisin (Sigma-Aldrich) in a total volume of 15 μL. Samples were incubated for 30 min at room temperature, after which period they were denatured by mixing with 10 mM PMSF and SDS-PAGE loading buffer, and heating at 98°C for 10 min. Digestion products were visualized on an SDS-PAGE after staining with Coomassie blue.

Molecule	Kd [1]	Kd [2]	Kd [3]	Kd [4]	Kd [5]	Kd [6]	Kd [7]	Kd [8]	Kd [9]	Kd [10]	Kd [11]	Kd [12]	Kd [13]	HR on transient co-expression with Cf-4 [14]	morphology of hyphae after chitinase treatment [15]	protection of fungal hyphae against chitinases, fungal growth ([15]; 6–8 h)	HR after protein infiltration [16]	Cf-4-mediated HR after protein infiltration [17]	higher binding affinity for (GlcNAc)6 than PfAvr4 [18]	Stability (Subtilisin assay) [19]
CC(=O)N[C@H]1[C@H](O[C@H]2[C@H](O)[C@@H](NC(C)=O)[C@H](O[C@H]3[C@H](O)[C@@H](NC(C)=O)C(O)O[C@@H]3CO)O[C@@H]2CO)O[C@H](CO)[C@@H](O[C@@H]2O[C@H](CO)[C@@H](O[C@@H]3O[C@H](CO)[C@@H](O[C@@H]4O[C@H](CO)[C@@H](O)[C@H](O)[C@H]4NC(C)=O)[C@H](O)[C@H]3NC(C)=O)[C@H](O)[C@H]2NC(C)=O)[C@@H]1O (stereo partly drawn) [(GlcNAc)6, chitohexaose (chitin hexasaccharide, beta-1,4-linked N-acetylglucosamine hexamer)]	131 µM	44.7 µM	6.73 µM	7.63 µM	11.3 µM	17.9 µM	121 µM	9.2 µM	12.2 µM	37.6 µM	18.8 µM	6.86 µM	7.16 µM							
B1														strong and similar in intensity HR	remained morphologically intact	enabled fungal growth and survival; also recorded: able to protect hyphae	none of the mutants or the WT-CfAvr4 induced an HR; also recorded: None of the proteins, WT-CfAvr4 or mutants, elicited an HR	strong and equal in intensity HR; also recorded: strong hypersensitive response (HR); also recorded: strong and equally in intensity necrosis	10 fold	S
